Assay results published in patent US20100143310A1, “SPINAL NERVE REPAIR PROMOTING THERAPEUTICS CONTAINING GHRELIN OR ITS DERIVATIVES OR SUBSTANCES THAT ACT ON GHS-R1a AS AN ACTIVE INGREDIENT” (JAPAN AS REPRESENTED BY PRESIDENT OF NATIONAL …, priority 2006, published 2010).
Where no end group is shown, it is not given here. The star is where a group is joined. Octanoyl = CCCCCCCC(=O)*

Experiments:
[1] = test system: cultured spinal neuronal precursor cells; assay: BrdU incorporation into cultured spinal neuronal precursor cells (Cell Proliferation ELISA); format: cell-based, Wistar rat; conditions: for BrdU incorporation into cultured spinal neuronal precursor cells, Mean ± S.D.: incubation 12 hours, n=6, Control 100.0 ± 6.7; for concentration that increased the BrdU incorporation into the cells: 12 hours
Source text: Embryos were extracted from a pregnant Wistar rat at day 17 by opening the abdomen under anesthesia. Spinal cords were collected from these embryos and subjected to papain digestion in Hank's balanced salt solution; as a result of subsequent mechanical separation by pipetting, a dispersion of embryonic spinal cord cells was obtained. After being filtered and centrifuged, the dispersed cells were suspended in a DMEM medium containing NaHCO3, 5% fetal bovine serum, penicillin (100 U/mL) and streptomycin (100 μg/mL), followed by plating onto laminin-coated 96-well multi-plates at 10^5 cells per well. After incubation for 4 days, 5-bromo-2'-deoxyuridine (BrdU) (10 μM) was added and incubation was conducted for 6 hours, followed by addition of rat ghrelin (0.003-300 nM) and subsequent incubation for 12 hours. After the end of incubation, the cells were recovered and using Cell Proliferation ELISA Kit (Roche Diagnostic GmbH, Mannheim, Germany), the amount of BrdU incorporation into the cells was measured to investigate the action of ghrelin on BrdU incorporation. Embryos were extracted from a pregnant Wistar rat at day 16 by opening the abdomen under anesthesia. Spinal cords were collected from these embryos and subjected to papain digestion in Hank's balanced salt solution; as a result of subsequent mechanical separation by pipetting, a dispersion of embryonic spinal cord cells was obtained. After being filtered and centrifuged, the dispersed cells were suspended in a DMEM medium containing NaHCO3, 5% fetal bovine serum, penicillin (100 U/mL) and streptomycin (100 μg/mL), followed by plating onto laminin-coated 96-well multi-plates at 10^5 cells per well. After incubation for 4 days, 5-bromo-2'-deoxyuridine (BrdU) (10 μM) was added and incubation was conducted for 6 hours; further, rat ghrelin, ghrelin(1-5)-Lys-NH2 (GSS(n-octanoyl)FLK-NH2), ghrelin(1-7)-Lys-NH2 ([…]) or MK-0677 having the structure indicated below was added in amounts of 0.03-3 nM and incubation was conducted for 12 hours before investigating the action of ghrelin on BrdU incorporation. After the end of incubation, the cells were recovered and using Cell Proliferation ELISA Kit (Roche Diagnostic GmbH, Mannheim, Germany), the amount of BrdU incorporation into the cells was measured to investigate the action of ghrelin on BrdU incorporation.

[2] = test system: spinal neuron proliferating action of ghrelin; assay: Effect of L-type calcium channel blocker on the spinal neuron proliferating action of ghrelin; format: cell-based
[3] = test system: spinal neuronal precursor cells; assay: Detection of BrdU positive cells with anti-BrdU antibody; format: cell-based, Wistar rat; conditions: FIG. 5, compared to the case where ghrelin was not allowed to act (physiological saline)
Source text: Embryos were extracted from a pregnant Wistar rat at day 17 by opening the abdomen under anesthesia. Spinal cords were collected from these embryos and subjected to papain digestion in Hank's balanced salt solution; as a result of subsequent mechanical separation by pipetting, a dispersion of embryonic spinal cord cells was obtained. After being filtered and centrifuged, the dispersed cells were suspended in a DMEM medium containing NaHCO3, 5% fetal bovine serum, penicillin (100 U/mL) and streptomycin (100 μg/mL), followed by plating onto laminin-coated 96-well multi-plates at 10^5 cells per well. After incubation for 4 days, 5-bromo-2′-deoxyuridine (BrdU) (10 μM) was added and incubation was conducted for 6 hours, followed by addition of rat ghrelin (0.003-300 nM) and subsequent incubation for 12 hours.
After the end of incubation, the cells were fixed with methanol and glacial acetic acid, had their DNA denatured with 2 N HCl; thereafter, the BrdU incorporated into the cells was measured by detecting the BrdU positive cells using a rat anti-BrdU monoclonal antibody (1:1000, Abcam, Cambridge, UK) as a primary antibody, and also using Cy™ 3-conjugated donkey anti-rat IgG polyclonal antibody (1:1000, Jackson ImmunoResearch Laboratories, Inc., PA, USA) as a secondary antibody, in order to investigate the action of ghrelin for proliferating spinal precursor cells. […]

[4] = test system: spinal neuronal precursor cells; assay: Double immunostaining for Nestin or Map2 and BrdU in proliferating spinal cord cells; format: cell-based, Wistar rat; conditions: FIG. 3-1 A and B; BrdU in nuclei of Nestin-stained cells, not in Map2-stained cells
Description: Double immunostaining was conducted in order to confirm the co-presence of the neuronal precursor cell marker Nestin or the neutron marker Map2 and GHS-R in proliferating cells (cells that were incorporating BrdU).
Embryos were extracted from a pregnant Wistar rat at day 17 by opening the abdomen under anesthesia. Spinal cords were collected from these embryos and subjected to papain digestion in Hank's balanced salt solution; as a result of subsequent mechanical separation by pipetting, a dispersion of fetal spinal cord cells was obtained. After being filtered and centrifuged, the dispersed cells were suspended in a DMEM medium containing NaHCO3, 5% fetal bovine serum, penicillin (100 U/mL) and streptomycin (100 μg/mL), followed by plating onto laminin-coated 96-well multi-plates at 10^5 cells per well.
To the plates, 5-bromo-2′-deoxyuridine (BrdU) (10 μM) was added and incubation was conducted for 4 days to thereby incorporate the BrdU into the spinal cord cells. The spinal cord cells were fixed with methanol and glacial acetic acid at −20° C. for 20 minutes. After DNA denaturation with 2 M HCl, 2% normal goat serum in PBS was used to perform blocking at room temperature for 30 minutes. […]

[5] = test system: rat models with injured spinal cord; assay: Grafting spinal neuronal precursor cells and locally administering ghrelin to rat models with injured spinal cord; format: in vivo, SD rats
Description: In accordance with the procedure described in Morino, T. et al, Neuroscience Research, 2003, vol. 46, pp 309-318, the grafting of spinal neuronal precursor cells and local administration of ghrelin to rat models with injured spinal cord were assessed. Male SD rats (8 to 9 weeks old) were anesthetized with pentobarbital and incised in the back to expose a vertebra ([…]). After excising the vertebral arch, a dental drill was used to open a window with a diameter of […], and a stainless steel needle with a silicone rubber fixed thereto was applied vertically, followed by loading of the top with a 20-g weight. Following a compression time of 30 minutes, a damaging drop equivalent to a weight of about 100 g was finally applied from above to construct models suffering a movement disorder in the lower limbs. The animals were divided into three groups: 1) a group under sham operation; 2) a control group with injured spinal cord; and 3) a group with injured spinal cord, treated by cell grafting, and locally administered with ghrelin. The group under sham operation received laminectomy but was simply sutured in the muscle and skin thereafter. After injuring the spinal cord, cultured spinal neuronal precursor cells (10^5 cells/25 μL) were grafted subdurally. Rat ghrelin was administered subdurally in an amount of 1 nmol together with the cells.
Twenty-four hours after the operation, the rats were transferred into a see-through cage and observed for the frequency of their standing up (by 3-minute observation). More specifically, the frequency of the rat standing up (in such a posture that it lifted the upper limbs and supported the body weight only with the lower limbs) was counted to assess the function of its hind limbs.

Row | Compound | BrdU incorporation into cultured spinal neuronal precursor cells, Mean ± S.D. ([1]; 0.03 nM) | BrdU incorporation into cultured spinal neuronal precursor cells, Mean ± S.D. ([1]; 0.3 nM) | BrdU incorporation into cultured spinal neuronal precursor cells, Mean ± S.D. ([1]; 3 nM) | concentration that increased the BrdU incorporation into the cells ([1]; Example 5, 0.03-3 nM tested) | suppression of the spinal neuron proliferating action of ghrelin [2] | concentration that increased the BrdU incorporation into the cells ([1]; Example 4, FIG. 4, rat ghrelin 0.003-300 nM tested) | BrdU positive cells detected [3] | cell type proliferated after treatment (BrdU with Nestin or Map2 double staining) [4] | frequency of a rat standing up per unit time, 24 hours after operation ([5]; 24 hours after operation, rat ghrelin 1 nmol subdurally together with grafted cells (10^5 cells/25 μL), 3-minute observation, control group with injured spinal cord 1.3 ± 0.6) | function of hind limbs (frequency of standing up), result in words ([5]; combination of cell grafting and local administration of ghrelin) | frequency of a rat standing up per unit time, Initial ([5]; initial, 3-minute observation)
1 | CC(C)(N)C(=O)N[C@H](COCc1ccccc1)C(=O)N1CCC2(CC1)CN(S(C)(=O)=O)c1ccccc12 [MK-0677, reference compound] | 119.5 ± 4.6 | 112.0 ± 13.9 | 105.8 ± 13.0 | 0.03 nM | – | – | – | – | – | – | –
2 | COc1ccc([C@@H]2Sc3ccccc3N(CCN(C)C)C(=O)[C@@H]2OC(C)=O)cc1 [diltiazem] | – | – | – | – | did not suppress | – | – | – | – | – | –
3 | GSS(n-octanoyl)FLK-NH2 (GSS(Octanoyl)FLK-NH2; N-terminus assumed; SMILES CCCCCCCC(=O)OC[C@H](NC(=O)[C@H](CO)NC(=O)CN)C(=O)N[C@@H](Cc1ccccc1)C(=O)N[C@@H](CC(C)C)C(=O)N[C@@H](CCCCN)C(N)=O) [Ghrelin (1-5)-Lys-NH2] | 106.9 ± 13.2 | 114.2 ± 11.3 | 103.5 ± 9.6 | – | – | – | – | – | – | – | –
4 | GSS(n-octanoyl)FLSPK-NH2 (GSS(Octanoyl)FLSPK-NH2; N-terminus assumed; SMILES CCCCCCCC(=O)OC[C@H](NC(=O)[C@H](CO)NC(=O)CN)C(=O)N[C@@H](Cc1ccccc1)C(=O)N[C@@H](CC(C)C)C(=O)N[C@@H](CO)C(=O)N1CCC[C@H]1C(=O)N[C@@H](CCCCN)C(N)=O) [Ghrelin (1-7)-Lys-NH2] | 108.3 ± 11.6 | 115.9 ± 14.1 | 140.5 ± 41.9 | – | – | – | – | – | – | – | –
5 | Ghrelin: rat ghrelin: 28-residue peptide, third serine acylated with n-octanoyl; endogenous ligand of GHS-R1a (SEQ ID NO:3 or 4) (GSS(Octanoyl)FLSPEHQKAQQRKESKKPPAKLQPR) | 112.5 ± 8.7 | 112.0 ± 15.0 | 120.4 ± 7.9 | – | – | ≥ 3 nM | a large number of BrdU positive cells were detected | has an action for proliferating spinal neuronal precursor cells | 8.7 ± 4.2 | led to a recovery in the frequency of standing up | 11.7 ± 2.3
